Results on three compounds are retold here after paper PMC4464910 (Pharmacological research : the official journal of the …, 2015).

One test has as its system mechanical allodynia. Type of test: in vivo, Sprague-Dawley rats. The note with it: for ED50 on mechanical allodynia: i.p., time point 1 hour.
Another test deals with 2-AG hydrolysis. The test can be described thus: 2-AG hydrolysis colorimetric assay in rat brain microsomes. Type of test: biochemical. The note with it: read-out: 2-AG hydrolysis IC50, n=3.
The next test has as its system heat hyperalgesia. The test can be described thus: carrageenan-induced heat hyperalgesia. The note with it: mice, oral, time point 4 hours. Type of test: in vivo, CD1 mice.
The test system of the next test is mechanical hyperalgesia. The test can be described thus: carrageenan-induced mechanical hyperalgesia. Type of test: in vivo, CD1 mice. The note with it: mice, oral, time point 4 hours.
Test [1] relates to carrageenan-induced edema. The test can be described thus: carrageenan-induced paw edema. Type of test: in vivo, CD1 mice. Particulars: mice, 10 mg kg^−1 oral, P<.001. (In general: Carrageenan injected into the paw causes an acute inflammation.)

In the case of `O=C(Nc1cccc(OC(F)(F)F)c1)N[C@H]1CC[C@H](Oc2ccc(C(=O)O)cc2)CC1` [t-TUCB, trans-4-[4-(3-trifluoromethoxyphenyl-l-ureido)-cyclohexyloxy]-benzoic acid], the “effect on allodynia compared with TPPU and URB937 at the same dose” value in the test with mechanical allodynia (diabetic rats, 3 mg kg^−1 i.p.) was “similar”.

Take `CCC(=O)N1CCC(NC(=O)Nc2ccc(OC(F)(F)F)cc2)CC1` [TPPU]: the “ED50 on mechanical allodynia” value in the test on mechanical allodynia (diabetic rats) was determined as 0.1 mg/kg. Also, in the test on 2-AG hydrolysis, the IC50 is over 100 µM. For the same compound, in the test with heat hyperalgesia, the “ED50 on heat hyperalgesia” value is 0.5 mg/kg. Moreover, the “ED50 on mechanical hyperalgesia” value in the test on mechanical hyperalgesia came to 1 mg/kg. Further, the “suppression of edema 24 hours after application” value in test [1] is listed as “still statistically detectable”.

For `NC(=O)c1cccc(-c2cc(OC(=O)NC3CCCCC3)ccc2O)c1` [URB937], the “ED50 on mechanical allodynia” value in the test with mechanical allodynia (diabetic rats) turned out to be 0.3 mg/kg. Besides, the “effect on allodynia at 0.3 mg kg^−1” value in the test on mechanical allodynia (neuropathic rats, 0.3 mg kg^−1 dose) is reported as “attenuated allodynia”. Further, the IC50 in the test on 2-AG hydrolysis was over 100 µM. Besides, the “ED50 on heat hyperalgesia” value in the test on heat hyperalgesia was 0.2 mg/kg.

A word on the IC50: it is the midpoint of a concentration-inhibition curve.
